Reference: US20090012133A1, “Polymorphic Form of -Acetic Acid” (SMITHKLINE BEECHAM CORPORATION, priority 2006, published 2009)

How the values were obtained:
[1] = stability of the crystal form at ambient temperatures; type: physicochemical
[2] = hygroscopicity of the crystalline form; type: physicochemical

Cc1cc(SCc2sc(-c3ccc(C(F)(F)F)cc3)nc2C)ccc1OCC(=O)O [Form 7, {2-methyl-4-[4-methyl-2-(4-trifluoromethylphenyl)thiazol-5-ylmethylthio]phenoxy}-acetic acid]
stability of crystal form [1]: stable
hygroscopic nature of crystalline form [2]: non-hygroscopic
